# Assay results reported in patent US10869871B2, “Compositions and methods of modulating short-chain dehydrogenase activity” (CASE WESTERN RESERVE UNIVERSITY, priority 2013, dated 2020).
# Columns and labels:
# liver = assay: Liver regeneration after partial hepatectomy, C57BL/6J mice; type: in vivo; settings: 5 mg/kg IP bid, one mouse each
# [1] = Survival after acetaminophen (Tylenol) LD50 dose 600 mg/kg IP; type: in vivo, mouse; settings: for number of mice surviving: first dose immediately after Tylenol injection;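 for all read-outs here: controls were mice given only vehicle, dosed once or twice per day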
compound,measurement,setting,value
"CCCC[S+]([O-])c1sc2nc(-c3cccs3)cc(-c3ccccc3)c2c1N (stereo not drawn) [SW033291, 2-(butylsulfinyl)-4-phenyl-6-(thiophen-2-yl)thieno[2,3-b]pyridin-3-amine]",serum ALT levels versus control,liver,lower
same,survival versus control,"[1]; 5 mg/kg IP beginning immediately following acetaminophen, once or twice daily, through 120 hours",No difference
same,Survival (number of mice),"[1]; 5 mg/kg IP bid from 3 hours prior to acetaminophen, 6 doses, cohort of 6, 0 hrs",6
same,Survival (number of mice),"[1]; 5 mg/kg IP bid from 3 hours prior to acetaminophen, 6 doses, cohort of 6, 16 hr",6
same,Survival (number of mice),"[1]; 5 mg/kg IP bid from 3 hours prior to acetaminophen, 6 doses, cohort of 6, 24 hrs",5
same,Survival (number of mice),"[1]; 5 mg/kg IP bid from 3 hours prior to acetaminophen, 6 doses, cohort of 6, 48 hrs",3
same,Survival (number of mice),"[1]; 5 mg/kg IP bid from 3 hours prior to acetaminophen, 6 doses, cohort of 6, 64 hrs",3
same,Survival (number of mice),"[1]; 5 mg/kg IP bid from 3 hours prior to acetaminophen, 6 doses, cohort of 6, 72 hrs",3
same,Survival (number of mice),"[1]; 5 mg/kg IP bid from 3 hours prior to acetaminophen, 6 doses, cohort of 6, 88 hr",3
same,Survival (number of mice),"[1]; 5 mg/kg IP bid from 3 hours prior to acetaminophen, 6 doses, cohort of 6, 96 hr",3
same,Survival (number of mice),"[1]; 5 mg/kg IP bid from 3 hours prior to acetaminophen, 6 doses, cohort of 6, 112 hr",3
same,Survival (number of mice),"[1]; 5 mg/kg IP bid from 3 hours prior to acetaminophen, 6 doses, cohort of 6, 120 hr",3
same,Survival (number of mice),"[1]; 5 mg/kg IP bid from 48 hours prior to acetaminophen, 9 doses, cohort of 12, 0 hrs",12
same,Survival (number of mice),"[1]; 5 mg/kg IP bid from 48 hours prior to acetaminophen, 9 doses, cohort of 12, 16 hr",12
same,Survival (number of mice),"[1]; 5 mg/kg IP bid from 48 hours prior to acetaminophen, 9 doses, cohort of 12, 24 hrs",12
same,Survival (number of mice),"[1]; 5 mg/kg IP bid from 48 hours prior to acetaminophen, 9 doses, cohort of 12, 40 hrs",11
same,Survival (number of mice),"[1]; 5 mg/kg IP bid from 48 hours prior to acetaminophen, 9 doses, cohort of 12, 48 hrs",10
same,Survival (number of mice),"[1]; 5 mg/kg IP bid from 48 hours prior to acetaminophen, 9 doses, cohort of 12, 64 hrs",10
same,Survival (number of mice),"[1]; 5 mg/kg IP bid from 48 hours prior to acetaminophen, 9 doses, cohort of 12, 72 hrs",10
same,Survival (number of mice),"[1]; 5 mg/kg IP bid from 48 hours prior to acetaminophen, 9 doses, cohort of 12, 88 hr",10
same,Survival (number of mice),"[1]; 5 mg/kg IP bid from 48 hours prior to acetaminophen, 9 doses, cohort of 12, 96 hr",10
same,Survival (number of mice),"[1]; 5 mg/kg IP bid from 48 hours prior to acetaminophen, 9 doses, cohort of 12, 112 hr",10
same,Survival (number of mice),"[1]; 5 mg/kg IP bid from 48 hours prior to acetaminophen, 9 doses, cohort of 12, 120 hr",10
same,number of mice surviving,"[1]; 1 dose daily, cohort of 6, 0 hrs",6
same,number of mice surviving,"[1]; 1 dose daily, cohort of 6, 16 hr",6
same,number of mice surviving,"[1]; 1 dose daily, cohort of 6, 24 hrs",6
same,number of mice surviving,"[1]; 2 dose daily, cohort of 6, 0 hrs",6
same,number of mice surviving,"[1]; 2 dose daily, cohort of 6, 16 hr",6
same,number of mice surviving,"[1]; 2 dose daily, cohort of 6, 24 hrs",6
same,number of mice surviving,"[1]; 2 dose daily, cohort of 6, 48 hrs",3
same,number of mice surviving,"[1]; 2 dose daily, cohort of 6, 64 hrs",3
same,number of mice surviving,"[1]; 2 dose daily, cohort of 6, 72 hrs",3
same,number of mice surviving,"[1]; 2 dose daily, cohort of 6, 88 hr",3
same,number of mice surviving,"[1]; 2 dose daily, cohort of 6, 96 hr",3
same,number of mice surviving,"[1]; 2 dose daily, cohort of 6, 112 hr",3
same,number of mice surviving,"[1]; 2 dose daily, cohort of 6, 120 hr",3
